Laboratory results as given in patent US10308660B2, “Compounds and compositions for inhibiting the activity of SHP2” (Novartis AG, priority 2015, dated 2019).

Target: SHP2 (Homo sapiens (Human), UniProt Q06124)
Experiment: SHP2 allosteric inhibition assay (DiFMUP prompt fluorescence)
Assay type: biochemical
Conditions: 0.5 nM SHP2 activated with 0.5 μM peptide IRS1_pY1172(dPEG8)pY1222; substrate DiFMUP; 25° C.

Chain of SHP2 (Q06124 whole entry): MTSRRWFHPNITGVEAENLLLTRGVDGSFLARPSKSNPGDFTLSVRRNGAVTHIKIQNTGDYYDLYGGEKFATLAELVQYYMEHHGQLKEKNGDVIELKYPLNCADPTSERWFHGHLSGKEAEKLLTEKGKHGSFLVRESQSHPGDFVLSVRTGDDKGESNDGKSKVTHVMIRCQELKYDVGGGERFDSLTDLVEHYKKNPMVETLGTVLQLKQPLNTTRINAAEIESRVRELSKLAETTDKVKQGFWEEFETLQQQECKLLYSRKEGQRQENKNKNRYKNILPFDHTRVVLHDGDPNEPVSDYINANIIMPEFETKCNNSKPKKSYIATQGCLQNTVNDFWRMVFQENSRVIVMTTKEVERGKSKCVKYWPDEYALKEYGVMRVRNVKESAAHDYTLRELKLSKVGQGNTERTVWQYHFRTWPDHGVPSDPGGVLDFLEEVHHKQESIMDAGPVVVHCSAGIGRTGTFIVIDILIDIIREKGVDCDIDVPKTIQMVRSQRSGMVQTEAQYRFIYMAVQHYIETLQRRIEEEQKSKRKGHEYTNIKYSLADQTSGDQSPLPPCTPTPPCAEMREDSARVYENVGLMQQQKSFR

SMILES	IC50 [nM]
C[C@@H]1OCC2(CCN(c3ncc(Sc4cccc(Cl)c4Cl)c(=O)n3C)CC2)[C@@H]1N [Example 103]	15
C[C@@H]1OCC2(CCN(c3nc(N)c(-c4ccc(F)c(Cl)c4)c(=O)n3C)CC2)[C@@H]1N [Example 158]	53
C[C@H]1C[C@@H](N)C2(CCN(c3nc(N)c(-c4ccc(F)c(F)c4)c(=O)n3C)CC2)C1 [Example 127]	14
Cn1c(N2CCC3(CC2)C[C@H](F)C[C@H]3N)nc(N)c(Sc2cccnc2C(F)(F)F)c1=O [Example 35]	24
Cn1c(N2CCC(C)(CN)CC2)nc(N)c(Sc2cccc3cccnc23)c1=O [Example 57]	279
C[C@@H]1CC2(CCN(c3nc(N)c(Sc4ccnc(N)c4Cl)c(=O)n3C)CC2)[C@H](N)[C@@H]1F (single isomer, unassigned) [Example 38]	30
Cn1c(N2CCC(C)(CN)CC2)nc(N)c(Sc2ccccc2OC(F)(F)F)c1=O [Example 46]	89
Cn1c(N2CCC(C)(CN)CC2)nc(N)c(Sc2cccc3c2OC(F)(F)O3)c1=O [Example 50]	152
C[C@@H]1OCC2(CCN(c3nc(N)c(-c4ccc(SC(F)(F)F)cc4)c(=O)n3C)CC2)[C@@H]1N [Example 130]	14
Cn1c(N2CCC(C)(CN)CC2)nc(N)c(Sc2cccc(Cl)c2)c1=O [Example 5]	2210
C[C@@H]1OCC2(CCN(c3nc(N)c(-c4cc(Cl)cc(Cl)c4Cl)c(=O)n3C)CC2)[C@@H]1N [Example 180]	515
C[C@@H]1OCC2(CCN(c3nc(N)c(-c4ccc(C5CCOCC5)cc4)c(=O)n3C)CC2)[C@@H]1N [Example 178]	412
Cn1c(N2CCC(C)(CN)CC2)ncc(Sc2ccnc(Cl)c2Cl)c1=O [Example 115]	83
COc1cccc(Sc2c(N)nc(N3CCC(C)(CN)CC3)n(C)c2=O)c1Cl [Example 9]	47
C[C@H]1C[C@@H](N)C2(CCN(c3nc(N)c(Sc4ccnc(Cl)c4C(F)(F)F)c(=O)n3C)CC2)C1 [Example 73]	71
C[C@@H]1OCC2(CCN(c3nc(N)c(-c4ccccn4)c(=O)n3C)CC2)[C@@H]1N [Example 182]	1060

SMILES	IC50 [nM]
Cn1c(N2CCC3(CC2)COC[C@H]3N)nc(N)c(Sc2cccnc2C(F)(F)F)c1=O [Example 63]	34
N[C@@H]1CCCC12CCN(c1ncc(-c3cccc(Cl)c3Cl)c(=O)[nH]1)CC2 [Example 202]	782
C[C@@H]1OCC2(CCN(c3nc(N)c(-c4cccc(F)c4)c(=O)n3C)CC2)[C@@H]1N [Example 151]	44
Cn1c(N2CCC(C)(CN)CC2)nc(N)c(Sc2ccccc2Cl)c1=O [Example 6]	286
CC[C@@H]1OCC2(CCN(c3nc(N)c(Sc4ccnc(C)c4Cl)c(=O)n3C)CC2)[C@@H]1N [Example 86]	22
Cn1c(N2CCC3(CC2)C[C@H](F)C[C@H]3N)nc(N)c(Sc2ccnc(N)c2Cl)c1=O [Example 36]	69
Cn1c(N2CCC3(CC2)CC(F)(F)C[C@H]3N)nc(N)c(-c2ccccc2)c1=O [Example 150]	44
Cn1c(N2CCC3(CCC[C@H]3N)CC2)nc(N)c(-c2ccccc2)c1=O [Example 191]	27
CCOc1nccc(Sc2cnc(N3CCC4(CC3)CO[C@@H](C)[C@H]4N)n(C)c2=O)c1Cl [Example 102]	10
C[C@H]1C[C@@H](N)C2(CCN(c3nc(N)c(-c4cccc(Cl)c4Cl)c(=O)n3C)CC2)C1 [Example 129]	14
Cn1c(N2CCC(C)(CN)CC2)nc(N)c(Sc2ccccc2[N+](=O)[O-])c1=O [Example 48]	300
Cc1nc(N2CCC3(CC2)CO[C@@H](C)[C@H]3N)n(C)c(=O)c1-c1ccccc1 [Example 197]	369
COc1nccc(Sc2ccc(N3CCC4(CC3)CO[C@@H](C)[C@H]4N)[nH]c2=O)c1Cl [Example 119]	83
C[C@@H]1OCC2(CCN(c3cc(N)c(Sc4cccnc4C(F)(F)F)c(=O)[nH]3)CC2)[C@@H]1N [Example 88, 4-amino-6-((3S,4S)-4-amino-3-methyl-2-oxa-8-azaspiro[4.5]decan-8-yl)-3-((2-(trifluoromethyl)pyridin-3-yl)thio)pyridin-2(1H)-one]	42
C[C@@H]1OCC2(CCN(c3nc(N)c(-c4ccc(C#N)cc4)c(=O)n3C)CC2)[C@@H]1N [Example 175]	256
Cc1nc(N2CCC3(CC2)CO[C@@H](C)[C@H]3N)n(C)c(=O)c1Sc1cccnc1C(F)(F)F [Example 122]	68
